Data: the supplement of paper PMC10307832

Assays:
Assay in all cases: relative viability (nuclei count vs DMSO), 5 days (fraction); higher = more cells survive
Ponatinib + Linsitinib = compound: Cc1ccc(C(=O)Nc2ccc(CN3CCN(C)CC3)c(C(F)(F)F)c2)cc1C#Cc1cnc2cccnn12 [Ponatinib] + C[C@]1(O)C[C@@H](c2nc(-c3ccc4ccc(-c5ccccc5)nc4c3)c3c(N)nccn32)C1 [Linsitinib] (partner 1 µM)
Summary of the method: (§1)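 A single step with final 0.05% Triton X-100, 1% formaldehyde and 1 ug/ml Hoechst fixed the cells and stained nuclei 5 days after treatment. Lung cancer cell lines in 1536-well plates had been treated by pin tool the day after seeding with one drug alone or a fixed anchor-drug dose plus five library-drug doses (not always all listed) in √10 steps, and nuclei were counted on 4× images. Relative viability is the ratio of nuclei in treated wells to nuclei in vehicle wells, taken as the median of duplicate plates.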

Pazopanib + Palbociclib = compound: Cc1ccc(Nc2nccc(N(C)c3ccc4c(C)n(C)nc4c3)n2)cc1S(N)(=O)=O [Pazopanib] + CC(=O)c1c(C)c2cnc(Nc3ccc(N4CCNCC4)cn3)nc2n(C2CCCC2)c1=O [Palbociclib] (partner 0.5 µM)
Summary of the method: as §1

Pazopanib + Dasatinib = compound: Cc1ccc(Nc2nccc(N(C)c3ccc4c(C)n(C)nc4c3)n2)cc1S(N)(=O)=O [Pazopanib] + Cc1nc(Nc2ncc(C(=O)Nc3c(C)cccc3Cl)s2)cc(N2CCN(CCO)CC2)n1 [Dasatinib] (partner 0.075 µM)
Summary of the method: as §1

Ponatinib + Bortezomib = compound: Cc1ccc(C(=O)Nc2ccc(CN3CCN(C)CC3)c(C(F)(F)F)c2)cc1C#Cc1cnc2cccnn12 [Ponatinib] + CC(C)C[C@H](NC(=O)[C@H](Cc1ccccc1)NC(=O)c1cnccn1)B(O)O [Bortezomib] (partner 0.002 µM)
Summary of the method: as §1

Cell Line	relative viability (Ponatinib + Linsitinib; first compound 0.002 µM)	relative viability (Ponatinib + Linsitinib; first compound 0.006325 µM)	relative viability (Ponatinib + Linsitinib; first compound 0.06325 µM)	relative viability (Ponatinib + Linsitinib; first compound 0.2 µM)	relative viability (Pazopanib + Palbociclib; first compound 0.01 µM)	relative viability (Pazopanib + Palbociclib; first compound 0.03162 µM)	relative viability (Pazopanib + Palbociclib; first compound 0.1 µM)	relative viability (Pazopanib + Palbociclib; first compound 0.3162 µM)	relative viability (Pazopanib + Palbociclib; first compound 1 µM)	relative viability (Pazopanib + Dasatinib; first compound 0.01 µM)	relative viability (Pazopanib + Dasatinib; first compound 0.03162 µM)	relative viability (Pazopanib + Dasatinib; first compound 0.1 µM)	relative viability (Pazopanib + Dasatinib; first compound 0.3162 µM)	relative viability (Pazopanib + Dasatinib; first compound 1 µM)	relative viability (Ponatinib + Bortezomib; first compound 0.002 µM)	relative viability (Ponatinib + Bortezomib; first compound 0.006325 µM)	relative viability (Ponatinib + Bortezomib; first compound 0.06325 µM)	relative viability (Ponatinib + Bortezomib; first compound 0.2 µM)
201T	0.958	1.11	1.06	1.01	0.332	0.356	0.343	0.37	0.412	0.526	0.424	0.568	0.545	0.666	1.06	1.11	1.13	1.08
A549	0.612	0.632	0.688	0.591	–	–	–	–	–	–	–	–	–	–	–	–	–	–
A-427	1.06	1.09	1.21	0.981	0.536	0.565	0.476	0.554	0.526	0.652	0.72	0.614	0.694	0.701	0.889	0.976	1.02	0.905
ABC-1	1.07	0.881	0.794	0.973	0.407	0.799	0.788	1.13	0.784	0.481	0.635	–	0.551	0.637	0.347	0.286	0.299	0.283
BEN	0.858	0.985	0.846	0.87	0.447	0.467	0.498	0.506	0.482	–	0.343	0.267	0.318	0.38	0.643	0.843	0.85	0.672
CAL-12T	0.791	0.773	1.12	0.899	0.487	0.687	0.348	0.486	0.577	0.308	0.412	0.312	0.458	0.462	0.634	0.9	1.39	1.09
COR-L23	0.9	0.826	0.889	0.741	0.297	0.323	0.353	0.316	0.317	0.512	0.503	0.553	0.449	0.56	0.862	0.875	0.818	0.8
COR-L 105	0.944	0.875	1.39	1.04	0.364	0.363	0.413	0.437	0.438	0.351	0.296	0.327	0.453	0.406	0.819	0.787	1.01	0.999
Calu-6	0.956	0.964	0.932	0.747	–	–	–	–	–	–	–	–	–	–	1.01	1.11	0.953	0.856
ChaGo-K-1	–	–	–	–	0.949	0.927	0.973	0.927	0.873	0.554	0.622	0.591	0.515	0.7	0.786	1.01	1.14	0.968
EBC-1	0.857	0.983	0.985	0.927	–	–	–	–	–	–	–	–	–	–	0.543	0.585	0.65	0.534
EKVX	0.927	1.04	1.24	1.02	0.378	0.461	0.395	0.368	0.423	0.63	0.53	0.54	0.592	0.601	1.01	1.11	1.13	1.02
EMC-BAC-2	0.82	0.824	0.914	0.776	–	0.522	0.488	0.511	0.492	–	0.381	0.308	0.305	0.312	0.967	1.02	1.06	1.04
EPLC-272H	1.06	1.24	1.31	0.801	–	0.366	0.304	0.334	0.409	–	0.321	0.369	0.376	0.251	0.76	0.894	0.856	0.88
H3255	0.849	0.951	1.06	0.885	0.314	0.315	0.349	0.328	0.361	0.349	0.397	0.295	0.286	0.454	0.659	0.792	0.806	0.76
HARA	0.916	0.916	0.976	0.944	0.238	0.255	0.295	0.254	0.295	0.23	0.341	0.241	0.248	0.337	1.06	1.1	1.21	0.861
HCC-15	0.923	0.873	0.953	0.815	0.7	0.708	0.729	0.752	0.788	0.543	0.631	0.612	0.67	0.692	0.919	1.04	1.16	1
